# Article PMC5772648, “Targeted NUDT5 inhibitors block hormone signaling in breast cancer cells” (Nature Communications, 2018)
# Assays:
# NUDT14 = target: T1, NUDT14 (Homo sapiens, UniProt O95848); test: phosphohydrolase selectivity, malachite green assay; type: biochemical
# T1 construct: His-tag (N); made in house; host or cells: E. coli BL21 (DE3) R3 pRARE2
# T1 sequence (O95848 1-222): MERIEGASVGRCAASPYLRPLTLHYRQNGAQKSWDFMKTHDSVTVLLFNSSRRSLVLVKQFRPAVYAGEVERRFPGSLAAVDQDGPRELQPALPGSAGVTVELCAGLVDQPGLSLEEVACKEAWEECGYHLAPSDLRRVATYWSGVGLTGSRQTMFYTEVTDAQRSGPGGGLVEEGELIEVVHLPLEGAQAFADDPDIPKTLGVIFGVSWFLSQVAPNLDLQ
# Description: The selectivity assay for TH5427 against similar pyrophosphohydrolases was performed with MTH1, NUDT9, NUDT2, NUDT12, NUDT14, NUDT15, NUDT18, ITPase, dCTPase and dUTPase[9]. All analyses were performed by malachite green assay following 30 min incubation at room temperature in reaction buffer (100 mM Tris Acetate, pH 7.5, 40 mM NaCl, 10 mM MgAc, 1 mM DTT) with 100 µM TH5427 and preferred substrates for each enzyme (4.75 nM MTH1 with 100 µM dGTP, 8 nM NUDT15 with 100 µM dGTP, 8 nM NUDT2 with 16 µM AP4A, 2 nM NUDT5 with 50 µM ADPR, 20 nM NUDT9 with 50 µM ADPR, 20 nM NUDT12 with 50 µM NADH, 2 nM NUDT14 with 50 µM ADPR, 200 nM NUDT18 with 50 µM 8-oxo-dGTP, 0.2 nM ITPase with […], 35 nM dCTPase with 35 µM dCTP, and 1 nM dUTPase with 12.5 µM dUTP). MTH1, NUDT15, NUDT18, ITPase, dCTPase and dUTPase reactions were coupled with 0.2 U/mL pyrophosphatase, while NUDT2, NUDT5, NUDT9, NUDT12, and NUDT14 reactions were coupled by bovine intestinal phosphatase (10 U/mL).
# purified NUDT5 = target: T2, purified NUDT5 (Homo sapiens, UniProt Q9UKK9); test: biochemical conversion of 32P-PAR to ATP and AMP by PARG and NUDT5 (TLC); conditions: 0.6 µM, with NUDT5, PARG and PPi
# T2 construct: His-tag (N); made in house; host or cells: E. coli BL21 (DE3) R3 pRARE2
# Description: ^32P-NAD-labeled PAR was prepared as follows: 5 µg of purified GST-PARP1 was incubated with 2 µg of activated calf thymus DNA and 10 mM NAD +/^32P-NAD (Perkin-Elmer) at a ratio of 1:10 for 30 min at 25 °C and brought to a final volume of 100 µL with PARP reaction buffer (50 mM Tris, pH 7.5, 50 mM NaCl, 0.5 mM DTT, 0.1% Triton X-100 and protease inhibitors)[23]. After incubation, 0.4 µg of DNase was added to obtain DNA-free probes and the reaction was precipitated using TCA. The pellet was washed with acetone, dried and resuspended in 100 µl (10 mM Tris-HCl, pH 8.0, 1 mM EDTA, 0.1 % SDS, 100 µg/mL of Proteinase K) and incubated for 1 h at 37 °C, after which radio-labeled PAR was extracted using phenol/chloroform and ethanol precipitation. The pellet was resuspended in 50 µL (10 mM Tris-HCl, pH 8.0, 1 mM EDTA) and used for subsequent biochemical analyses.
# Enzymatic conversion of radiolabeled ^32P-PAR by PARG and NUDT5 was performed using purified radio-labeled PAR (as described above) with the addition of recombinant bovine PARG in PAR glycohydroxylation buffer (PGB; 10 mM HEPES, pH 7.5, 150 mM KCl, 10 mM MgCl2)[23]. Recombinant PARG was added at the beginning of the reaction to a 10 µL final volume and incubated for 1 h at 25 °C. Recombinant NUDT5, pyrophosphate and/or TH5427 (0.6 µM) were added as indicated and incubated for an additional hour. […]
# T47D^M cells = test: progesterone-dependent gene expression by RT-qPCR; type: cell-based; conditions: 1.5 µM, 6 h R5020
# Description: For hormone and inhibitor treatments, normal T47D^WT cells or cells containing a single copy of luciferase under the control of the mouse mammary tumor virus (MMTV) promoter (T47D^M) were used[23]. Prior to hormone induction, cells were grown in phenol red-free RPMI medium supplemented with 10% dextran-coated charcoal-treated FBS (DCC/FBS). After 16 h in serum-free conditions, cells were pre-incubated with DMSO (vehicle) or NUDT5 inhibitor for 2 h at the indicated dose before addition of R5020 (10 nM) or vehicle (ethanol, EtOH) for the allotted time.
# Total RNA and cDNA were prepared using an RNeasy Plus kit (Qiagen) and Superscript II kit (Invitrogen), respectively, according to the manufacturers’ instructions. Quantification of mRNA abundance of specific gene products was performed by RT-qPCR (LightCycler FastStart DNA Master SYBR Green I), normalized to GAPDH and expressed as relative RNA abundance over time zero (no R5020 treatment). Primer sequences are available upon request.
# T47D cells = test: R5020-induced proliferation by BrdU incorporation; type: cell-based; conditions: 1.5 µM, 24 h after R5020
# Description: T47D^M cells (1 × 10^4) were plated in a 96-well plate in the presence or absence of inhibitors 2 h prior to R5020 addition. The cell proliferation ELISA BrdU chemiluminescent assay (Roche) was performed according to the manufacturer’s instructions 24 h following hormone addition.
smiles,measurement,setting,value
Cn1c(=O)c2c(nc(N3CCNCC3)n2Cc2nnc(-c3ccc(Cl)c(Cl)c3)o2)n(C)c1=O [TH5427],inhibition at 100 µM,NUDT14,38%
same,synthesis of ATP and AMP from 32P-PAR,purified NUDT5,inhibited the biochemical synthesis of ATP and AMP from ^32P-PAR
same,"progestin-dependent gene expression, EGFR and MMTV-luc",T47D^M cells,significantly disrupted EGFR and MMTV-luc expression
same,"progestin-independent gene expression, CCNB1 and RBM24",T47D^M cells,did not affect the expression of CCNB1 or RBM24
same,"progestin-dependent proliferation, BrdU incorporation",T47D cells,abrogated the progestin-dependent proliferation response
